Here are results for 22 compounds from patent publication US20210101928A1 (Sage Therapeutics, Inc., priority 2017, published 2021).

The structures appear in SMILES notation. Like-named read-outs stand apart in the source and are kept apart here.

For this assay, the target named is GABAA receptor ([35S]-TBPS binding, rat brain cortical membranes). Nature of the assay: Steroid inhibition of [35S]-TBPS binding. The note with it: in the presence of 5 mM GABA. On the procedure:
[^35S]-t-Butylbicyclophosphorothionate (TBPS) binding assays using rat brain cortical membranes in the presence of 5 mM GABA has been described (Gee et al, J. Pharmacol. Exp. Ther. 1987, 241, 346-353; Hawkinson et al, Mol. Pharmacol. 1994, 46, 977-985; Lewin, A. H et al., Mol. Pharmacol. 1989, 35, 189-194).
Briefly, cortices are rapidly removed following decapitation of carbon dioxide-anesthetized Sprague-Dawley rats (200-250 g). The cortices are homogenized in 10 volumes of ice-cold 0.32 M sucrose using a glass/teflon homogenizer and centrifuged at 1500×g for 10 min at 4° C. The resultant supernatants are centrifuged at 10,000×g for 20 min at 4° C. to obtain the P2 pellets. The P2 pellets are resuspended in 200 mM NaCl/50 mM Na—K phosphate pH 7.4 buffer and centrifuged at 10,000×g for 10 min at 4° C. This washing procedure is repeated twice and the pellets are resuspended in 10 volumes of buffer. Aliquots ([…]) of the membrane suspensions are incubated with 3 nM [^35S]-TBPS and […] aliquots of test drug dissolved in dimethyl sulfoxide (DMSO) (final 0.5%) in the presence of 5 mM GABA. The incubation is brought to a final volume of 1.0 mL with buffer. Nonspecific binding is determined in the presence of […] and ranged from 15 to 25%. Following a 90 min incubation at room temp, the assays are terminated by filtration through glass fiber filters (Schleicher and Schuell No. 32) using a cell harvester (Brandel) and rinsed three times with ice-cold buffer. Filter bound radioactivity is measured by liquid scintillation spectrometry. Non-linear curve fitting of the overall data for each drug averaged for each concentration is done using Prism (GraphPad). […] The concentration of test compound producing 50% inhibition (IC50) of specific binding and the maximal extent of inhibition (Imax) are determined for the individual experiments with the same model used for the overall data and then the means±SEM.s of the individual experiments are calculated.
Various compounds are or can be screened to determine their potential as modulators of [^35S]-TBPS binding in vitro. These assays are or can be performed in accordance with the above.

Setting [1] is: Table II-2, 3 nM [35S]-TBPS, read-out: TBPS IC50.
Where [2] appears, read: Table I-1, 3 nM [35S]-TBPS, read-out: TBPS binding IC50.

Consider `CC[C@]12CC[C@@](C)(O)C[C@H]1CC[C@H]1[C@@H]3CC[C@H](C(=O)Cn4cc(C#N)cn4)[C@@]3(C)CC[C@@H]12`, for which, under setting [1], the 50% inhibitory concentration (IC50) (usually the concentration that inhibits the measured activity by half) is less than 10 nM.
For `CC[C@]12CC[C@@](C)(O)C[C@H]1CC[C@H]1[C@@H]3CC[C@H](C(=O)Cn4nnc5ccc(OC)cc54)[C@@]3(C)CC[C@@H]12` (single isomer, unassigned) [II-M2], under setting [1], the IC50 was less than 10 nM.
`CC[C@]12CC[C@@](C)(O)C[C@H]1CC[C@H]1[C@@H]3CC[C@H](C(=O)Cn4nnc5cc(OC)ccc54)[C@@]3(C)CC[C@@H]12` (single isomer, unassigned) [II-M2a]: under setting [1], the IC50 was less than 10 nM.
Turning to `CC[C@]12CC[C@@](C)(O)C[C@H]1CC[C@H]1[C@@H]3CC[C@H](C(=O)Cn4nc5ccc(OC)cc5n4)[C@@]3(C)CC[C@@H]12` (single isomer, unassigned) [II-M2b], under setting [1], the IC50 is less than 10 nM.
With `CCOC[C@@]1(O)CC[C@@]2(CC)C(CC[C@@H]3[C@@H]2CC[C@]2(C)[C@@H](C(=O)Cn4nnc(C)n4)CC[C@@H]32)C1` (stereo in doubt) [II-77, 1-((3R,5R,8S,9S,10S,13S,14S,17S)-3-(ethoxymethyl)-10-ethyl-3-hydroxy-13-methylhexadecahydro-1H-cyclopenta[a]phenanthren-17-yl)-2-(5-methyl-2H-tetrazol-2-yl)ethan-1-one], the concentration for half-maximal inhibition (IC50) under setting [1] was 10 to 100 nM.
In the case of `CN(CC(=O)[C@H]1CC[C@H]2[C@@H]3CC[C@]4(C)C[C@](C)(O)CC[C@]4(C)[C@H]3CC[C@]12C)c1ccccc1` [I-A2, 1-((3R,5R,8S,9S,10R,13S,14S,17S)-3-hydroxy-3,5,10,13-tetramethylhexadecahydro-1H-cyclopenta[a]phenanthren-17-yl)-2-(methyl(phenyl)amino)ethan-1-one], under setting [2], the IC50 is 100 to 1000 nM.
The same measure, in the same setting: as for `C[C@@]1(O)CC[C@]2(C)[C@H]3CC[C@]4(C)[C@@H](C(=O)CNc5ccccc5)CC[C@H]4[C@@H]3CC[C@]2(C)C1` [I-A3, 1-((3R,5R,8S,9S,10R,13S,14S,17S)-3-hydroxy-3,5,10,13-tetramethylhexadecahydro-1H-cyclopenta [a]phenanthren-17-yl)-2-(phenylamino)ethan-1-one], the figure is 100 to 1000 nM; as for `C[C@@]1(O)CC[C@]2(C)[C@H]3CC[C@]4(C)[C@@H](C(=O)Cn5cc(C#N)cn5)CC[C@H]4[C@@H]3CC[C@]2(C)C1` [I-A4, 1-(2-((3R,5R,8S,9S,10R,13S,14S,17S)-3-hydroxy-3,5,10,13-tetramethylhexadecahydro-1H-cyclopenta[a]phenanthren-17-yl)-2-oxoethyl)-1H-pyrazole-4-carbonitrile], 100 to 1000 nM; as for `CC(=O)[C@H]1CC[C@H]2[C@@H]3CC[C@]4(C)C[C@@](C)(O)CC[C@]4(C)[C@H]3CC[C@]12C` [I-A5, 1-((3S,5R,8S,9S,10R,13S,14S,17S)-3-hydroxy-3,5,10,13-tetramethylhexadecahydro-1H-cyclopenta[a]phenanthren-17-yl)ethan-1-one], 1000 to 10000 nM.
Consider `C[C@@]1(O)CC[C@]2(C)[C@H]3CC[C@]4(C)[C@@H](C(=O)Cn5cc6ccncc6n5)CC[C@H]4[C@@H]3CC[C@]2(C)C1` [I-A6, 1-((3R,5R,8S,9S,10R,13S,14S,17S)-3-hydroxy-3,5,10,13-tetramethylhexadecahydro-1H-cyclopenta[a]phenanthren-17-yl)-2-(2H-pyrazolo[3,4-c]pyridin-2-yl)ethan-1-one], for which the IC50 under setting [2] was 100 to 1000 nM.
Same read-out and setting: as for `C[C@@]1(O)CC[C@]2(C)[C@H]3CC[C@]4(C)[C@@H](C(=O)Cn5ncc6ccncc65)CC[C@H]4[C@@H]3CC[C@]2(C)C1` [I-A7, 1-((3R,5R,8S,9S,10R,13S,14S,17S)-3-hydroxy-3,5,10,13-tetramethylhexadecahydro-1H-cyclopenta[a]phenanthren-17-yl)-2-(1H-pyrazolo[3,4-c]pyridin-1-yl)ethan-1-one], the figure is 100 to 1000 nM; as for `Cc1nnnn1CC(=O)[C@H]1CC[C@H]2[C@@H]3CC[C@]4(C)C[C@](C)(O)CC[C@]4(C)[C@H]3CC[C@]12C` [I-A8, 1-((3R,5R,8S,9S,10R,13S,14S,17S)-3-hydroxy-3,5,10,13-tetramethylhexadecahydro-1H-cyclopenta[a]phenanthren-17-yl)-2-(5-methyl-1H-tetrazol-1-yl)ethan-1-one], 100 to 1000 nM.
For the compound `Cc1nnn(CC(=O)[C@H]2CC[C@H]3[C@@H]4CC[C@]5(C)C[C@](C)(O)CC[C@]5(C)[C@H]4CC[C@]23C)n1` [I-A9, 1-((3R,5R,8S,9S,10R,13S,14S,17S)-3-hydroxy-3,5,10,13-tetramethylhexadecahydro-1H-cyclopenta[a]phenanthren-17-yl)-2-(5-methyl-2H-tetrazol-2-yl)ethan-1-one], under setting [2], the half-inhibitory concentration (IC50) is 100 to 1000 nM.
Still for that read-out and setting: to `CC(=O)[C@H]1CC[C@H]2[C@@H]3CC[C@]4(C)C[C@](C)(O)CC[C@]4(C)[C@H]3CC[C@]12C` [I-B6, 1-((3R,5R,8S,9S,10R,13S,14S,17S)-3-hydroxy-3,5,10,13-tetramethylhexadecahydro-1H-cyclopenta [a]phenanthren-17-yl)ethan-1-one] belongs 100 to 1000 nM.
For `CC[C@]12CC[C@@](C)(O)C[C@H]1CC[C@H]1[C@@H]3CC[C@H](C(=O)N4CC[C@@H](c5ccccc5)C4)[C@@]3(C)CC[C@@H]12` [II-1], the IC50 under setting [1] is 10 to 100 nM.
For the compound `CC[C@]12CC[C@@](C)(O)C[C@H]1CC[C@H]1[C@@H]3CC[C@H](C(=O)Cn4nccn4)[C@@]3(C)CC[C@@H]12` [II-13, 1-((3R,5R,8S,9S,10S,13S,14S,17S)-10-ethyl-3-hydroxy-3,13-dimethylhexadecahydro-1H-cyclopenta[a]phenanthren-17-yl)-2-(2H-1,2,3-triazol-2-yl)ethan-1-one], under setting [1], the concentration for half-maximal inhibition (IC50) is less than 10 nM.
With `CC[C@]12CC[C@@](C)(O)C[C@H]1CC[C@H]1[C@@H]3CC[C@H](C(=O)Cn4ccnn4)[C@@]3(C)CC[C@@H]12` [II-13a, 1-((3R,5R,8S,9S,10S,13S,14S,17S)-10-ethyl-3-hydroxy-3,13-dimethylhexadecahydro-1H-cyclopenta[a]phenanthren-17-yl)-2-(1H-1,2,3-triazol-1-yl)ethan-1-one], the IC50 under setting [1] is less than 10 nM.
Still for that read-out and setting: as for `CC[C@]12CC[C@@](C)(O)C[C@H]1CC[C@H]1[C@@H]3CC[C@H](C(=O)Cn4nnc(C)n4)[C@@]3(C)CC[C@@H]12` [II-14, 1-((3R,5R,8S,9S,10S,13S,14S,17S)-10-ethyl-3-hydroxy-3,13-dimethylhexadecahydro-1H-cyclopenta[a]henanthren-17-yl)-2-(5-methyl-2H-tetrazol-2-yl)ethan-1-one], the figure is less than 10 nM; as for `CC[C@]12CC[C@@](C)(O)C[C@H]1CC[C@H]1[C@@H]3CC[C@H](C(=O)Cn4nnnc4C)[C@@]3(C)CC[C@@H]12` [II-14a, 1-((3R,5R,8S,9S,10S,13S,14S,17S)-10-ethyl-3-hydroxy-3,13-dimethylhexadecahydro-1H-cyclopenta[a]phenanthren-17-yl)-2-(5-methyl-1H-tetrazol-1-yl)ethan-1-one], less than 10 nM; as for `CC[C@]12CC[C@@](C)(O)C[C@H]1CC[C@H]1[C@@H]3CC[C@H](C(=O)N4CCCC[C@@H]4C)[C@@]3(C)CC[C@@H]12` [II-20, ((3R,5R,8S,9S,10S,13S,14S,17S)-10-ethyl-3-hydroxy-3,13-dimethylhexadecahydro-1H-cyclopenta[a]phenanthren-ren-17-yl)((S)-2-methylpiperidin-1-yl)methanone], 10 to 100 nM.
Still for that read-out and setting: to `CC[C@H]1CCCCN1C(=O)[C@H]1CC[C@H]2[C@@H]3CC[C@@H]4C[C@](C)(O)CC[C@]4(CC)[C@H]3CC[C@]12C` [II-21, ((3R,5R,8S,9S,10S,13S,14S,17S)-10-ethyl-3-hydroxy-3,13-dimethylhexadecahydro-cyclopenta[a]phenanthren-17-yl)((S)-2-ethylpiperidin-1-yl)methanone] belongs 10 to 100 nM; to `CC[C@@H]1CCCCN1C(=O)[C@H]1CC[C@H]2[C@@H]3CC[C@@H]4C[C@](C)(O)CC[C@]4(CC)[C@H]3CC[C@]12C` [II-21a, ((3R,5R,8S,9S,10S,13S,14S,17S)-10-ethyl-3-hydroxy-3,13-dimethylhexadecahydro-1H-cyclopenta[a]phenanthren-17-yl)((R)-2-ethylpiperidin-1-yl)methanone], 10 to 100 nM.
